{"source": "paper PMC9415608", "about": "“Design, Synthesis and Biological Investigation of 2-Anilino Triazolopyrimidines as Tubulin Polymerization Inhibitors with Anticancer Activities” (Pharmaceuticals, 2022)", "key": {"[1]": {"tested_on": "MDA-MB-231, HeLa, A549 and HT-29 cancer cell lines", "assay": "Antiproliferative activity stated across the panel of cancer cell lines", "assay_type": "cell-based, human", "settings": "for IC50: Homo sapiens", "method": "All the cell lines used in this paper were of human origin and purchased from the American Type Culture Collection (ATCC, Manassas, VA, USA). Colon adenocarcinoma (HT-29), non-small cell lung carcinoma (A549), cervix carcinoma (HeLa) and breast adenocarcinoma (MDA-MB-231) cells were grown in RPMI (HT29) or DMEM (A549, HeLa, MDA-MB-231) medium (Gibco, Milano, Italy). Both media were supplemented with 115 units/mL of penicillin G (Gibco, Milano, Italy), 115 μg/mL of streptomycin (Invitrogen, Milano, Italy) and 10% fetal bovine serum (Invitrogen, Milano, Italy). All cell lines were grown at 37 °C in a humidified 5% CO2 atmosphere. The cells were grown in 2 mL of complete medium.\nStock solutions were prepared for each compound by dissolving in DMSO at the final concentration of 10 mM.\nThe cells were seeded in 96-well plates at the appropriate density for each cell line. The respective cell line densities used for the antiproliferative assay were HeLa and HT29 5000 cells/well, A549 4000 cells/well and MDA-MB-231 7000 cells/well. The total volume of medium was 100 µL. After 24 h, the cells were treated by performing serial 5-fold dilutions of the tested compounds starting from a concentration of 10 μM. All experimental conditions were tested in triplicate for statistical analysis. After 72 h of incubation, 10 μL of 100 μg/mL resazurin solution was added to each well and the plate was re-incubated for 3–4 h. The fluorescence of the wells in each plate was monitored using a Spark 10M spectrophotometer (Tecan Group Ltd., Mannedorf, Switzerland) with a 535 nm excitation wavelength and a 600 nm emission wavelength."}, "Bovine brain tubulin": {"tested_on": "Bovine brain tubulin", "assay": "Inhibition of tubulin polymerization (turbidimetric assembly assay)", "assay_type": "biochemical", "method": "Bovine brain tubulin was purified as described previously. To evaluate the effects of the compounds on tubulin assembly in vitro [80], varying concentrations were preincubated with 10 μM tubulin in 0.8 M monosodium glutamate (pH 6.6) at 30 °C and the reaction mixtures then cooled to 0 °C. After addition of GTP, the mixtures were transferred to 0 °C cuvettes in Beckman Coulter (Brea, CA, USA) DU-7400/DU-7500 recording spectrophotometers equipped with electronic temperature controllers and warmed to 30 °C, and the assembly of tubulin was observed turbidimetrically. […] Inhibition of colchicine binding to tubulin was measured as described before, except that the reaction mixtures contained 0.5 μM tubulin and 5 μM each of [^3H]colchicine and test compound. Only one DEAE-cellulose filter was used per sample, and filtration was by gravity.\nBovine brain tubulin (see ref. [79] for details of purification) was used to examine effects on tubulin polymerization and colchicine binding. Briefly, in the polymerization experiments, different compound concentrations were preincubated with 10 µM tubulin for 15 min at 30 °C and cooled on ice. After GTP was added to each reaction mixture, the samples were transferred to 0 °C cuvettes in recording spectrophotometers with electronic temperature controllers. The temperature was raised to 30 °C over about 30 s, and turbidity development was followed for 20 min at 350 nm. […] In the current studies, [^3H]colchicine (from American Radiolabeled Corp., St. Louis, MO) binding was measured after 10 min at 37 °C. Reaction mixtures contained 0.5 µM tubulin and 5.0 µM each of the [^3H]colchicine and the potential inhibitor, and a single DEAE-cellulose filter was used for each sample, with gravity filtration."}, "HeLa cells": {"tested_on": "HeLa cells", "assay": "Apoptosis assay, annexin-V-FITC/PI flow cytometry", "assay_type": "cell-based, human", "method": "The quantification of the apoptosis induced by the test compounds was carried out by flow cytometric analysis using the Annexin-V Fluos kit (Roche Diagnostics, Rotkreuz, Switzerland) following the manufacturer’s instructions. The HeLa cells treated with the test compounds for different incubation times and at the indicated concentrations were then labeled with annexin V/FITC and PI and analyzed with Coulter Cytomics FC500 (Beckman Coulter) in the FL1 and FL3 channel, respectively."}, "[2]": {"tested_on": "Wild-type AB zebrafish embryos", "assay": "Drug toxicity assessment on zebrafish embryos", "assay_type": "in vivo, Zebrafish (Danio rerio)", "settings": "6 hpf to 72 hpf", "method": "Zebrafish (Danio rerio) were obtained, staged and raised as described previously and maintained according to the OPBA of the Istituto di Ricerca Pediatrica guidelines. All procedures were conducted following the recommendations and the guidelines of the Animal Use Ethics Committee concerning the protection of animals used for scientific purposes.\nWild-type AB zebrafish embryos were treated with chemicals from shield stage (6 hpf) to larval stage (72 hpf) in a 12-well plate, by adding 20 larvae/well for each experimental condition. The zebrafish embryos were treated with compound 3d at the concentration of 30 nm and 300 nM. These concentrations were selected on the basis of the IC50 found above in HeLa cells. The drugs were added directly to the fish water diluted directly from the stock solution in DMSO. […] Subsequently, the treated embryos were kept at a constant temperature (28.5 °C). Embryos are monitored daily through a stereo microscope (Nikon SMZ745T; Nikon, Japan) and the morphological changes as well as the number of dead embryos were evaluated and recorded."}, "HeLa cell xenograft": {"tested_on": "HeLa cell xenograft", "assay": "Zebrafish xenograft model with DiI-labeled HeLa cells", "assay_type": "in vivo, Zebrafish (Danio rerio)", "settings": "24 h treatment, 30 or 300 nM", "from_the_text": "Prior to microinjections into Tg zebrafish embryos (fli1: EGFP), HeLa tumor cells were labeled with the VybrantTM DiI dye (Invitrogen, ThermoFisher, Carlsbad, CA, USA). The fluorescent cells were loaded into borosilicate glass capillary needles (OD/ID: 1.00/0.75 mm, World Precision Instruments (WPI, Friedberg, Germany) and injected (200 cells), through a pneumatic picopump, into the Cuvier duct of 48 hpf embryos previously anesthetized with tricaine (0.02%, Sigma-Aldrich, Milan, Italy).\nAfter injection, the xenograft-harboring larvae were incubated to recover at 34° C in fish water containing phenylthiourea (PTU) to inhibit the pigmentation process. After 2 h from the injection, the embryos were examined to ensure homogeneity of the xenografts. For drug treatments, only successfully injected xenograft larvae were selected, with approximately 200 HeLa fluorescent cells scattered around the caudal area.\nThe injected xenografts were exposed to the doses of 3d used above with DMSO as control.\nFor cancer cell imaging and fluorescence quantification, anesthetized embryos were distributed to 96-well plates with one embryo/well. Initially (time 0 h, pre-treatment) and after one-day post-treatment, the tumors were photographed with a Zeiss AxioObserver microscope for live-cell imaging."}}, "note": "Like-named read-outs stand apart in the source and are kept apart here.", "data": [{"smiles": "COc1cc(-c2ccnc3nc(Nc4ccc(C)cc4)nn23)cc(OC)c1OC", "note": "[Compound 3d, N-(p-Tolyl)-7-(3,4,5-trimethoxyphenyl)-[1,2,4]triazolo[1,5-a]pyrimidin-2-amine]", "values": [{"measurement": "fold less active than 2a as antiproliferative agent", "setting": "[1]; HeLa, HT-29 and A549 cells", "result": "1-2 fold"}, {"measurement": "IC50", "setting": "[1]; in the four tumor cell lines examined, read-out: IC50s, range", "result": "0.03 to 0.43", "unit": "µM"}, {"measurement": "IC50", "setting": "[1]; on HeLa, A549 and HT-29 cancer cells, read-out: IC50 values, range", "result": "0.03 to 0.043", "unit": "µM"}, {"measurement": "fold more potent than the 7-(3′,4′,5′-trimethoxyanilino) counterpart", "setting": "[1]; antiproliferative agent", "result": "4–30 fold"}, {"measurement": "fold more active than CA-4 as inhibitor of tubulin assembly", "setting": "Bovine brain tubulin", "result": 2, "unit": "fold"}, {"measurement": "fold more potent than 2a as inhibitor of tubulin assembly", "setting": "Bovine brain tubulin", "result": "~2", "unit": "fold"}, {"measurement": "IC50", "setting": "Bovine brain tubulin; tubulin at 10 μM, 20 min incubation, read-out: Tubulin Assembly IC50 ± SD", "result": "0.45 ± 0.1", "unit": "µM"}, {"measurement": "necrotic cells (A−/PI+)", "setting": "HeLa cells; 50 nM, long incubation times", "result": "about 25%"}, {"measurement": "induction of apoptosis", "setting": "HeLa cells; HeLa, 24 or 48 h", "result": "induced, in a concentration- and time-dependent manner, apoptosis"}, {"measurement": "toxicity to zebrafish embryos", "setting": "[2]; 30 nM in fish water", "result": "no morphological abnormalities or embryonic lethality"}, {"measurement": "toxicity to zebrafish embryos", "setting": "[2]; 300 nM in fish water, edema re-absorbed within the next 24 h", "result": "small yolk sac edema in the majority of 48 hpf embryos"}, {"measurement": "fluorescence intensity of tumor xenografts", "setting": "HeLa cell xenograft", "result": "decreased in a dose-dependent manner, reaching statistical significance at 300 nM"}, {"measurement": "number of disseminated cancer cells", "setting": "HeLa cell xenograft", "result": "significantly reduced the number of disseminated cancer cells"}]}]}
